Experimental data reported in the supplement of paper PMC10331698.
± gives the standard deviation of the averaged measurements.

Tests used:
Assay in all cases: level (log10 ratio to DMSO vehicle control); higher = higher biomarker level / cell amount than vehicle control
[1] = compound: C[C@@H]1C[C@H]2[C@@H]3CCC4=CC(=O)C=C[C@]4(C)[C@@]3(F)[C@@H](O)C[C@]2(C)[C@@]1(O)C(=O)COP(=O)(O)O [Dexamethasone sodium phosphate] (in DMSO)
Protocol: (§1)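 BioMAP Diversity Plus panel of 12 human primary cell co-culture systems (3C, 4H, LPS, SAg, BT, BF4T, BE3C, CASM3C, HDF3CGF, KF3CT, MyoF, Mphg). Compounds were added 1 h before stimulation and left for 24 h (MyoF 48 h; BT 72 h for soluble read-outs or 6 d for IgG). Biomarkers were read by ELISA, cytotoxicity by SRB, PBMC viability and proliferation by Alamar Blue. Each well value was divided by the mean of 8 DMSO control wells on the same plate and log10 transformed; duplicate blinded samples were tested at 4 concentrations.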

[2] = compound: O=C(O)C(F)(F)C(F)(F)C(F)(F)OC(F)(F)F [Perfluoro(4-methoxybutanoic) acid] (in DMSO)
Protocol: as §1

[3] = compound: O=C(O)C(F)(OC(F)(F)C(F)(OC(F)(F)C(F)(OC(F)(F)C(F)(F)C(F)(F)F)C(F)(F)F)C(F)(F)F)C(F)(F)F [Perfluoro-(2,5,8-trimethyl-3,6,9-trioxadodecanoic)acid] (in DMSO)
Protocol: as §1

[4] = compound: OCC(F)(F)C(F)(F)C(F)(F)C(F)F [1H,1H,5H-Perfluoropentanol] (in DMSO)
Protocol: as §1

[5] = compound: O=S(=O)(O)C(F)(F)C(F)(F)OC(F)(F)C(F)(F)F [Perfluoro(2-ethoxyethane)sulfonic acid] (in DMSO)
Protocol: as §1

[6] = compound: CO[Si](C)(CCC(F)(F)C(F)(F)C(F)(F)C(F)(F)C(F)(F)C(F)(F)F)OC [Dimethoxymethyl((perfluorohexyl)ethyl)silane] (in DMSO)
Protocol: as §1

| Test System | level (log10) ([1]; 1500 nM) | level (log10) ([1]; 4400 nM) | level (log10) ([1]; 13000 nM) | level (log10) ([1]; 40000 nM) | level (log10) ([2]; 6700 nM) | level (log10) ([2]; 20000 nM) | level (log10) ([2]; 60000 nM) | level (log10) ([3]; 1100 nM) | level (log10) ([3]; 3300 nM) | level (log10) ([3]; 10000 nM) | level (log10) ([4]; 6700 nM) | level (log10) ([4]; 20000 nM) | level (log10) ([4]; 60000 nM) | level (log10) ([5]; 6700 nM) | level (log10) ([5]; 20000 nM) | level (log10) ([5]; 60000 nM) | level (log10) ([6]; 6700 nM) | level (log10) ([6]; 20000 nM) |
| --- | --- | --- | --- | --- | --- | --- | --- | --- | --- | --- | --- | --- | --- | --- | --- | --- | --- | --- |
| BT:sIL-17F | -0.259 ± 0.0099 | -0.251 ± 0.058 | -0.262 ± 0.012 | -0.239 ± 0.047 | -0.0085 ± 0.059 | 0.07 ± 0.017 | -0.037 ± 0.073 | 0.044 ± 0.064 | 0.0125 ± 0.16 | -0.0705 ± 0.046 | -0.0035 ± 0.067 | -0.051 ± 0.035 | -0.013 ± 0.25 | -0.0315 ± 0.022 | -0.071 ± 0.031 | -0.0005 ± 0.021 | 0.074 ± 0.0014 | 0.102 ± 0.064 |
| 4H:CD106/VCAM-1 | 0.004 ± 0.02 | -0.011 ± 0.0042 | -0.012 ± 0.0028 | -0.005 ± 0.011 | -0.0105 ± 0.012 | -0.0075 ± 0.005 | -0.002 ± 0.018 | 0.019 ± 0.013 | 0.027 ± 0.014 | 0.049 ± 0.0099 | -0.0075 ± 0.0035 | 0.0115 ± 0.0021 | 0.018 ± 0.021 | -0.0085 ± 0.00071 | 0.0075 ± 0.037 | 0.01 ± 0.033 | 0.003 ± 0.011 | 0.0265 ± 0.0035 |
| BE3C:CXCL8/IL-8 | -0.094 ± 0.044 | -0.137 ± 0.015 | -0.171 ± 0.0092 | -0.157 ± 0.011 | 0.0325 ± 0.028 | 0.0325 ± 0.016 | 0.0655 ± 0.042 | 0.05 ± 0.038 | 0.039 ± 0.023 | 0.0625 ± 0.00071 | -0.0065 ± 0.077 | 0.0185 ± 0.12 | 0.0875 ± 0.12 | 0.0135 ± 0.016 | 0.008 ± 0.038 | 0.04 ± 0.0028 | -0.006 ± 0.0085 | 0.038 ± 0.038 |
| LPS:SRB | 0.008 ± 0.0085 | -0.012 ± 0.0071 | -0.003 ± 0.0099 | 0.006 ± 0.031 | -0.0085 ± 0.00071 | -0.008 ± 0.0071 | -0.0085 ± 0.0035 | -0.008 ± 0.0042 | -0.0125 ± 0.005 | -0.001 ± 0.0085 | -0.017 ± 0.0014 | -0.0115 ± 0.00071 | -0.0005 ± 0.0078 | -0.0175 ± 0.0021 | -0.012 | -0.0145 ± 0.0064 | -0.0025 ± 0.0064 | 0.003 ± 0.0085 |
| SAg:CCL2/MCP-1 | -0.024 ± 0.031 | -0.029 ± 0.013 | -0.089 ± 0.0042 | -0.07 | -0.0325 ± 0.022 | -0.0225 ± 0.012 | 0.017 ± 0.024 | -0.0025 ± 0.018 | -0.0055 ± 0.0035 | 0.0195 ± 0.025 | 0.016 ± 0.0085 | 0.0115 ± 0.035 | -0.014 ± 0.035 | 0.0065 ± 0.0078 | 0.0055 ± 0.011 | 0.0145 ± 0.019 | -0.0215 ± 0.00071 | -0.0145 ± 0.0064 |
| BF4T:CD90 | 0.009 ± 0.018 | -0.002 ± 0.023 | -0.005 ± 0.018 | 0.0025 ± 0.015 | -0.009 ± 0.011 | -0.006 ± 0.0099 | 0 ± 0.0028 | 0.001 ± 0.0042 | 0 ± 0.0028 | 0.0085 ± 0.0035 | -0.011 ± 0.0085 | 0.0005 ± 0.00071 | 0.003 ± 0.0057 | -0.01 ± 0.0085 | -0.0185 ± 0.0092 | -0.0185 ± 0.0021 | 0.0085 ± 0.018 | 0 ± 0.021 |
| SAg:Proliferation | -0.001 ± 0.034 | 0.0035 ± 0.0078 | -0.0855 ± 0.005 | -0.023 ± 0.0099 | -0.0095 ± 0.0021 | 0 ± 0.018 | -0.009 ± 0.0014 | 0.009 ± 0.041 | 0.0425 ± 0.0035 | 0.0335 ± 0.016 | -0.0155 ± 0.011 | -0.0635 ± 0.016 | 0.025 ± 0.055 | -0.0725 ± 0.012 | -0.048 ± 0.025 | -0.038 ± 0.024 | 0.051 ± 0.048 | -0.004 ± 0.13 |
| BE3C:CD87/uPAR | -0.08 ± 0.048 | -0.102 ± 0.0057 | -0.108 ± 0.033 | -0.096 ± 0.0042 | 0.0145 ± 0.011 | -0.0195 ± 0.019 | 0.002 ± 0.0099 | -0.0035 ± 0.0021 | -0.011 ± 0.0057 | 0.025 ± 0.024 | -0.012 ± 0.0085 | -0.01 ± 0.0071 | 0 ± 0.027 | -0.014 ± 0.035 | 0.012 ± 0.014 | 0.0075 ± 0.0021 | 0.0225 ± 0.013 | 0.0075 ± 0.0078 |
| 3C:CD87/uPAR | 0.0545 ± 0.013 | 0.048 ± 0.02 | 0.0455 ± 0.00071 | 0.016 ± 0.016 | -0.03 ± 0.058 | -0.035 ± 0.051 | -0.0265 ± 0.04 | -0.0075 ± 0.016 | -0.0005 ± 0.011 | -0.0105 ± 0.019 | -0.0135 ± 0.019 | 0.0015 ± 0.011 | -0.0095 ± 0.013 | 0.0105 ± 0.0064 | 0.0165 ± 0.0021 | 0.007 ± 0.0071 | -0.002 ± 0.0071 | -0.026 ± 0.021 |
| BE3C:CXCL10/IP-10 | 0.0215 ± 0.021 | 0.014 ± 0.028 | 0 ± 0.02 | -0.0035 ± 0.016 | -0.0045 ± 0.0078 | -0.001 ± 0.0085 | 0.0045 ± 0.0035 | 0.035 ± 0.024 | 0.0325 ± 0.015 | 0.036 ± 0.0071 | -0.0015 ± 0.016 | 0.005 ± 0.017 | 0.0165 ± 0.042 | -0.008 ± 0.02 | -0.024 ± 0.033 | -0.01 ± 0.0071 | -0.0025 ± 0.0078 | -0.0065 ± 0.0021 |
| BF4T:CD54/ICAM-1 | -0.003 ± 0.021 | -0.0105 ± 0.011 | -0.0205 ± 0.0021 | -0.0005 ± 0.015 | -0.005 ± 0.024 | -0.013 ± 0.027 | -0.0005 ± 0.0035 | 0.0025 ± 0.018 | 0.004 ± 0.0042 | 0.004 ± 0.0085 | -0.0035 ± 0.019 | 0.01 ± 0.013 | 0.02 ± 0.021 | -0.003 ± 0.0028 | -0.0125 ± 0.0064 | -0.008 ± 0.017 | -0.006 ± 0.0071 | -0.008 ± 0.0099 |
| SAg:CXCL8/IL-8 | -0.0245 ± 0.039 | -0.0475 ± 0.039 | -0.097 ± 0.075 | -0.137 ± 0.087 | 0.007 ± 0.0085 | 0.005 ± 0.017 | 0.01 ± 0.034 | -0.0095 ± 0.028 | -0.0265 ± 0.037 | 0.0195 ± 0.026 | 0.006 ± 0.033 | -0.0065 ± 0.00071 | 0.0275 ± 0.052 | 0.0225 ± 0.057 | 0.0465 ± 0.016 | 0.0945 ± 0.0035 | -0.0085 ± 0.012 | 0.0145 ± 0.018 |
| LPS:sPGE2 | -0.028 ± 0.028 | -0.0525 ± 0.015 | -0.121 ± 0.044 | -0.155 ± 0.016 | -0.0115 ± 0.026 | 0.01 ± 0.047 | -0.012 ± 0.017 | 0.0385 ± 0.032 | 0.011 ± 0.031 | -0.012 ± 0.047 | -0.071 ± 0.011 | -0.027 ± 0.018 | -0.0175 ± 0.036 | 0 ± 0.028 | -0.0545 ± 0.03 | -0.001 ± 0.011 | 0 ± 0.042 | -0.0145 ± 0.035 |
| LPS:CXCL8/IL-8 | 0.026 ± 0.014 | -0.017 ± 0.02 | -0.0135 ± 0.025 | -0.0475 ± 0.076 | -0.0075 ± 0.05 | 0.0075 ± 0.049 | 0.0545 ± 0.005 | 0.0045 ± 0.016 | -0.0045 ± 0.0064 | 0.0095 ± 0.0021 | 0.004 ± 0.0057 | 0.0185 ± 0.005 | 0.001 ± 0.025 | 0.0585 ± 0.025 | 0.108 ± 0.07 | 0.21 ± 0.04 | 0.0325 ± 0.03 | 0.065 ± 0.0071 |
